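Growth conditions: 96-well plates. Treatment: test compound, 48 hours, 5 concentrations. Analysis: linear interpolation between bracketing concentrations; unreached endpoints set to highest concentration. GI50 = concentration required for 50% inhibition of growth. TGI: concentration producing complete growth inhibition.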
Assays:
Assay in all cases: NCI anticancer screen, dose series, 48 h
[1] = test system: HS 578T breast
[2] = test system: OVCAR-5 ovarian
[3] = test system: SK-MEL-5 melanoma
[4] = test system: SNB-19 CNS
[5] = test system: HCT-15 colon
[6] = test system: UACC-257 melanoma
[7] = test system: PC-3 prostate
[8] = test system: SW-620 colon
[9] = test system: SK-OV-3 ovarian
[10] = test system: MCF7 breast
[11] = test system: HOP-62 NSCLC
[12] = test system: MDA-MB-231 breast
[13] = test system: KM12 colon
[14] = test system: OVCAR-4 ovarian
[15] = test system: CCRF-CEM leukemia
[16] = test system: NCI-H226 lung
[17] = test system: A549 NSCLC
[18] = test system: A498 renal
[19] = test system: HT29 colon
[20] = test system: SF-295 CNS
[21] = test system: OVCAR-3 ovarian
[22] = test system: NCI-H460 lung
[23] = test system: IGROV1 ovarian
[24] = test system: NCI-H23 lung
[25] = test system: MOLT-4 leukemia
[26] = test system: UACC-62 melanoma
[27] = test system: SK-MEL-2 melanoma
[28] = test system: ACHN renal
[29] = test system: SF-539 CNS

`CCn1c2ccccc2c2cc(/C=C(/C#N)C(N)=S)ccc21` gave a GI50 [1] of 2.21 µM, a TGI [1] of 9.29 µM and a GI50 [2] of 0.0581 µM. It also gave a TGI [2] of 0.57 µM, a GI50 [3] of 7.26 µM and a TGI [3] of 20.2 µM. For the same molecule, the GI50 [4] was 35.2 µM, the TGI [4] was greater than 75.6 µM and the GI50 [5] was 18.7 µM. For the same molecule, the TGI [5] was 51.6 µM, the GI50 [6] was 3.11 µM and the TGI [6] was greater than 21.4 µM. For the same molecule, the GI50 [7] was 18.3 µM, the TGI [7] was greater than 59.4 µM and the GI50 [8] was 9.06 µM. It also gave a TGI [8] of 25.1 µM, a GI50 [9] of 36.7 µM and a TGI [9] greater than 62.1 µM. The GI50 [10] was 0.271 µM, the TGI [10] was 17.8 µM and the GI50 [11] was 1.21 µM. It also gave a TGI [11] of 17.7 µM, a GI50 [12] of 12.1 µM and a TGI [12] of 30.8 µM. It also gave a GI50 [13] of 15.2 µM, a TGI [13] of 38.5 µM and a GI50 [14] of 1.43 µM. It also gave a TGI [14] of 9.92 µM, a GI50 [15] of 23.4 µM and a TGI [15] greater than 100 µM. It also gave a TGI [16] of 0.0236 µM, a GI50 [17] of 17.5 µM and a TGI [17] greater than 87.4 µM. For the same molecule, the GI50 [18] was 0.026 µM, the TGI [18] was 0.115 µM and the GI50 [19] was 10.9 µM. For the same molecule, the TGI [19] was greater than 42.7 µM, the GI50 [20] was 4.64 µM and the TGI [20] was 24.2 µM. It also gave a GI50 [21] of 1.73 µM, a TGI [21] of 18.2 µM and a GI50 [22] of 0.443 µM. It also gave a TGI [22] of 12.2 µM, a GI50 [23] of 0.619 µM and a TGI [23] of 23.2 µM. It also gave a GI50 [24] of 14.8 µM, a TGI [24] of 35.4 µM and a GI50 [25] of 12.5 µM. For the same molecule, the TGI [25] was 58.6 µM, the GI50 [26] was 0.219 µM and the TGI [26] was 1.51 µM. The GI50 [27] was 31.3 µM, the TGI [27] was greater than 100 µM and the GI50 [28] was 19.6 µM. It also gave a TGI [28] of 64 µM and a GI50 [29] of 14.2 µM.

From PubChem BioAssay (NCI)
